{
  "source": "patent US20100144853A1",
  "about": "“NOVEL COMBINED ADMINISTRATION” (priority 2008, published 2010)",
  "type_in_all_cases": "in vitro ADME",
  "key": {"[1]": {"assay": "Stability of COMPOUND A in human intestinal fluids, Procedure F (suspension, no separation of excess), first table", "settings": "fasted HIF", "description": "Fasted Intestinal Fluids: the fluids from 4 different subjects were collected with a naso-jejunal tube after fasting overnight and pooled.\nProcedure F (COMPOUND A and COMPOUND B in suspension, the degradation immediately stopped without separation of excess compound): Stock K=COMPOUND B suspension (0.5 mg/mL)\nDilute 1 part of COMPOUND B suspension (stock J) with 3 parts of FeSSIF pH6.5 solution.\n500 μL of freshly thawed intestinal fluids (fasted and stimulated state) were added to 1.2 mg of COMPOUND A in a 1 mL glass vial. The suspended compound was stirred for 15 min at 37° C. to obtain wetting and a homogenous suspension. In parallel, 4 glass vials were prepared with 20 μL of a COMPOUND B suspension at different concentrations. These concentrations were obtained by mixing FeSSIF pH6.5 and COMPOUND B suspension (stock K) in different ratios, respectively 1:[…], 1:1, 0:1 to obtain 0, 1, 2 and 4% related to COMPOUND A. At time zero, 100 μL of COMPOUND A suspension preincubated at 37° C. were added to the 20 μL COMPOUND B suspension. The mixture was incubated at 37° C. with gentle stirring. After 15 min and 60 min, the reaction was stopped by mixing a 50 μL sample with 150 μL isopropanol and centrifuged at 5′000 rpm during 5 min. The clear supernatant was analyzed for the hydrolysis product and its oxidized form by HPLC."}, "Lipase from Hog Pancreas [2]": {"system": "Lipase from Hog Pancreas", "assay": "Stability of COMPOUND A with Lipase, Procedure B (premix of COMPOUND B and COMPOUND A, then Lipase)", "settings": "10 min, 0.55 mg/mL (11 U/mL) Lipase", "description": "240 mg Lipase (Lipase from Hog Pancreas, 20.6 U/mg Lipase, CAS No. 9001-62-1, Fluka, Art. No. 62300) were weighed into a vial and dissolved by stirring in 10 mL phosphate buffered saline solution pH 6.5. Any undissolved material was removed by centrifugation during 5 min at 5000 rpm. The supernatant was used for the experiments and diluted with PBS to obtain the Lipase at the final concentration of 0.55 mg/mL.\nProcedure B (Premix of COMPOUND B and COMPOUND A, Followed by Addition of Lipase):\n100 μL of drug solution (stock A) were mixed with 0, 12, 25 or 50 μL esterase inhibitor solution (stock B) and 100, 88, 75 or 50 μL of FeSSIF concentrate (Lecithin37.5 mM and Sodium taurocholate 150 mM) were added to make up 200 μL of a solution with COMPOUND B concentrations of 0, 12, 25 or 50 μg/mL. At time zero, 800 μL of Lipase in phosphate buffered saline solution (from stock C to obtain final enzyme concentrations of 0.55 mg/mL) were added. The reaction mixture was incubated at 37° C. and stopped after 10 minutes by diluting one part of the reaction mixture with 3 parts Isopropanol."}, "Lipase from Hog Pancreas [3]": {"system": "Lipase from Hog Pancreas", "assay": "Stability of COMPOUND A with Lipase, Procedure C (premix of COMPOUND A and Lipase, then COMPOUND B)", "settings": "0.55 mg/mL Lipase", "description": "Procedure C (Premix of COMPOUND A and Lipase, Followed by Addition of COMPOUND B): Remark: Final COMPOUND B concentration: 3 μg/ml 220 μL of drug solution (stock A) and 220 μL of FeSSIF concentrate (Lecithin 37.5 mM and Sodium taurocholate 150 mM) were mixed. At time zero the reaction was started by addition of 1700 μl of Lipase in phosphate buffered saline solution (from stock C to obtain a final enzyme concentration of 0.55 mg/mL). The mixture was incubated at 37° C. and after 5 min, a 200 μL sample was taken for HPLC analysis. Then 60 μL of COMPOUND B solution (stock B) previously diluted 1:10 in phosphate buffered saline solution (corresponds to 100 μg/mL COMPOUND B) was added and as a function of time, samples of 200 μL were taken, diluted immediately with 600 μL of isopropanol and centrifuged for 5 min at 3000 rpm. The supernatant was analyzed by HPLC. 1700 μl of Lipase in phosphate buffered saline solution (from stock C to obtain a final enzyme concentration of 0.55 mg/mL) were mixed with 220 μL of FeSSIF concentrate and at time zero 220 μL of drug solution (stock A) was added. After 7 min of incubation, a 200 μL sample was taken, 60 μL of diluted COMPOUND B solution (stock B) was added and continued as described for the 1st experiment."}},
  "data": [
    {"smiles": "CCC(CC)CC1(C(=O)Nc2ccccc2SC(=O)C(C)C)CCCCC1", "note": "[COMPOUND A, thioisobutyric acid S-(2-{[1-(2-ethyl-butyl)-cyclohexanecarbonyl]-amino}-phenyl)ester]", "values": [
      {"measurement": "Concentration of COMPOUND A", "setting": "[1]; COMPOUND B 0 μg/mL (0%), T = 15 min", "result": 1111.92, "unit": "µg/mL"},
      {"measurement": "Concentration of COMPOUND A", "setting": "[1]; COMPOUND B 0 μg/mL (0%), T = 60 min", "result": 182.50, "unit": "µg/mL"},
      {"measurement": "Concentration of COMPOUND A", "setting": "[1]; COMPOUND B 20 μg/mL (1%), T = 15 min", "result": 1299.01, "unit": "µg/mL"},
      {"measurement": "Concentration of COMPOUND A", "setting": "[1]; COMPOUND B 20 μg/mL (1%), T = 60 min", "result": 718.26, "unit": "µg/mL"},
      {"measurement": "Concentration of COMPOUND A", "setting": "[1]; COMPOUND B 40 μg/mL (2%), T = 15 min", "result": 1381.23, "unit": "µg/mL"},
      {"measurement": "Concentration of COMPOUND A", "setting": "[1]; COMPOUND B 40 μg/mL (2%), T = 60 min", "result": 598.81, "unit": "µg/mL"},
      {"measurement": "Concentration of COMPOUND A", "setting": "[1]; COMPOUND B 80 μg/mL (4%), T = 15 min", "result": 1728.95, "unit": "µg/mL"},
      {"measurement": "Concentration of COMPOUND A", "setting": "[1]; COMPOUND B 80 μg/mL (4%), T = 60 min", "result": 826.93, "unit": "µg/mL"},
      {"measurement": "Concentration of COMPOUND A", "setting": "Lipase from Hog Pancreas [2]; COMPOUND B 0 μg/mL", "result": 23.0, "unit": "µg/mL"},
      {"measurement": "Concentration of COMPOUND A", "setting": "Lipase from Hog Pancreas [2]; COMPOUND B 12 μg/mL", "result": 46.4, "unit": "µg/mL"},
      {"measurement": "Concentration of COMPOUND A", "setting": "Lipase from Hog Pancreas [2]; COMPOUND B 25 μg/mL", "result": 46.5, "unit": "µg/mL"},
      {"measurement": "Concentration of COMPOUND A", "setting": "Lipase from Hog Pancreas [2]; COMPOUND B 50 μg/mL", "result": 46.1, "unit": "µg/mL"},
      {"measurement": "Concentration of COMPOUND A", "setting": "Lipase from Hog Pancreas [3]; +3 μg/mL COMPOUND B at T = 5 min, time 0 min", "result": 45.3, "unit": "µg/mL"},
      {"measurement": "Concentration of COMPOUND A", "setting": "Lipase from Hog Pancreas [3]; +3 μg/mL COMPOUND B at T = 5 min, time 5 min", "result": 41.5, "unit": "µg/mL"},
      {"measurement": "Concentration of COMPOUND A", "setting": "Lipase from Hog Pancreas [3]; +3 μg/mL COMPOUND B at T = 5 min, time 10 min", "result": 39.1, "unit": "µg/mL"},
      {"measurement": "Concentration of COMPOUND A", "setting": "Lipase from Hog Pancreas [3]; +3 μg/mL COMPOUND B at T = 5 min, time 15 min", "result": 39.3, "unit": "µg/mL"},
      {"measurement": "Concentration of COMPOUND A", "setting": "Lipase from Hog Pancreas [3]; +3 μg/mL COMPOUND B at T = 5 min, time 20 min", "result": 39.1, "unit": "µg/mL"},
      {"measurement": "Concentration of COMPOUND A", "setting": "Lipase from Hog Pancreas [3]; +3 μg/mL COMPOUND B at T = 5 min, time 25 min", "result": 39.3, "unit": "µg/mL"},
      {"measurement": "Concentration of COMPOUND A", "setting": "Lipase from Hog Pancreas [3]; +3 μg/mL COMPOUND B at T = 5 min, time 30 min", "result": 39.3, "unit": "µg/mL"},
      {"measurement": "Concentration of COMPOUND A", "setting": "Lipase from Hog Pancreas [3]; +3 μg/mL COMPOUND B at T = 7 min, time 0 min", "result": 45.3, "unit": "µg/mL"},
      {"measurement": "Concentration of COMPOUND A", "setting": "Lipase from Hog Pancreas [3]; +3 μg/mL COMPOUND B at T = 7 min, time 5 min", "result": 40.4, "unit": "µg/mL"},
      {"measurement": "Concentration of COMPOUND A", "setting": "Lipase from Hog Pancreas [3]; +3 μg/mL COMPOUND B at T = 7 min, time 10 min", "result": 38.4, "unit": "µg/mL"},
      {"measurement": "Concentration of COMPOUND A", "setting": "Lipase from Hog Pancreas [3]; +3 μg/mL COMPOUND B at T = 7 min, time 15 min", "result": 38.2, "unit": "µg/mL"},
      {"measurement": "Concentration of COMPOUND A", "setting": "Lipase from Hog Pancreas [3]; +3 μg/mL COMPOUND B at T = 7 min, time 20 min", "result": 37.9, "unit": "µg/mL"},
      {"measurement": "Concentration of COMPOUND A", "setting": "Lipase from Hog Pancreas [3]; +3 μg/mL COMPOUND B at T = 7 min, time 25 min", "result": 37.8, "unit": "µg/mL"},
      {"measurement": "Concentration of COMPOUND A", "setting": "Lipase from Hog Pancreas [3]; +3 μg/mL COMPOUND B at T = 7 min, time 30 min", "result": 37.9, "unit": "µg/mL"}
    ]}
  ]
}
